According to the METLIN SMRT retention time set (Domingo-Almenara et al. 2019):

Experiment: gradient 5% acetonitrile 3 min, to 50% in 2 min, to 85% in 15 min, held 3 min, 100 µL/min
Settings: column: Zorbax Extend-C18 2.1 x 50 mm; eluents: water / acetonitrile, 0.1% formic acid
How it was run: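 Values are retention times taken from adduct peaks that software picked and an analyst inspected. The pure standards were run as mixtures of ~100 molecules on HPLC linked to a quadrupole time-of-flight mass spectrometer, in positive and negative ionization mode. A Zorbax Extend-C18 column (2.1 × 50 mm, 1.8 μm) was used at 100 μL/min with water and acetonitrile, each including 0.1% formic acid.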

Compound | RP-LC retention time
Cc1nn(CCC(=O)NC2CCCCCC2)c(=O)c2nn(-c3ccccc3)c(C)c12 | 830 s
O=S(=O)(NC1CCN(Cc2ccccc2)CC1)c1cc(-c2cc(C(F)(F)F)on2)cs1 | 776 s
Cc1cccc(-c2[nH]ncc2CN)c1 | 561 s
COc1ccccc1C(=O)Nc1c(-c2ccccc2)nc2ccccn12 | 597 s
CCn1cc(S(=O)(=O)N2CC(Cn3c(C)cnc3-c3cccnc3)C2)cn1 | 576 s
CCCn1cnc2cc(CNS(=O)(=O)c3ccc(F)cc3)ccc21 | 635 s
O=C(Nc1ccccc1C(F)(F)F)c1ccc(N2CCCC2)nn1 | 868 s
c1ccc(-c2nc(-c3ccncc3)no2)c(OC2CCN(Cc3ccc4c(c3)CCO4)C2)c1 (stereo not given) | 611 s
CCCCn1cnc2c(-c3ccccc3)cn(CC(=O)Nc3ccc(Cl)cc3)c2c1=O | 1120 s
O=C(C1CC(=O)N(c2n[nH]c3cccc(F)c23)C1)N1CCN(c2ccc(Cl)cc2)CC1 (stereo not given) | 817 s
Cc1nc(Cn2cccc2C(=O)Nc2cccc(Cl)c2)no1 | 911 s
Cc1c(C(=O)Nc2ccc(N3CCC(N4CCOCC4)CC3)c(C#N)c2)cnn1-c1ccc(Cl)cc1 | 800 s
CC1=NS(=O)(=O)N(Cc2ccccc2)C=C1C(=O)OCc1ccc(C(C)(C)C)cc1 | 1320 s
CC1(C(=O)NC2CCCCCCC2)CN(S(C)(=O)=O)CC(=O)N1c1cccc(Cl)c1 (stereo not given) | 963 s
O=C(c1cccs1)N1CCN(c2cc(-c3ccccc3)[nH]n2)CC1 | 734 s
CC(C)c1ccc(OCC(=O)Nc2nnc(-c3ccc(Br)o3)o2)cc1 | 906 s
Cc1ccccc1NC(=O)C1CCCN(c2ncnc3c2nc2n3CCCCC2)C1 (stereo not given) | 766 s
CSc1ccc(-c2noc(Cn3nc(-c4ccccc4Cl)ccc3=O)n2)cc1 | 1030 s
Cc1ccnc(Nc2nc(-c3ccc(F)c(C)c3)cs2)c1 | 906 s
Cn1c(=O)cc(SCC(=O)N2CCN(c3ccccn3)CC2)c2ccc(Cl)cc21 | 639 s

Compound | RP-LC retention time
O=C(Cn1c(=O)cc(-c2nc(C3CC3)no2)c2ccccc21)Nc1ccc2c(c1)OCO2 | 908 s
CCOc1nc2c(c(C)nn2-c2ccccc2)c(C)c1CCC(=O)N1CCN(c2ccccn2)CC1 | 822 s
COc1ccc(NC(=O)N2CCC(c3nc(C(=O)N(C)C)c(C)o3)CC2)cc1 | 676 s
CN(Cc1cccn1C)C(=O)NC1CCCC1 | 775 s
Cc1nnc(-c2ccc3ccn(CC(=O)NCc4ccc(N(C)C)cc4)c3c2)o1 | 632 s
N#Cc1cccc(CN2CCCC(c3nc(-c4ccncc4)n[nH]3)C2)c1 (stereo not given) | 494 s
CCc1cc(C2CCCN2C(=O)Nc2cccc(Cl)c2)on1 (stereo not given) | 924 s
CC(C)OCCCNC(=O)Cn1cccc1-c1nc(-c2ccc(Cl)cc2)cs1 | 1100 s
O=C(Cc1c(F)cccc1Cl)Nc1nc(-c2ccccc2)cs1 | 1040 s
CC(C)n1c(C2CCN(C(=O)C3CCCO3)CC2)nn(C)c1=O (stereo not given) | 592 s
COCCNC(=O)C1CCN(c2nc3ccc(-c4ccsc4)nc3s2)CC1 | 774 s
COc1cccc(C(=O)COc2cc(O)c3c(=O)cc(-c4ccccc4)oc3c2)c1 | 1170 s
O=C(NCC1CCCO1)c1ccc([N+](=O)[O-])cc1Cl (stereo not given) | 664 s
CN(C)C(=O)C1CCN(c2nc3ccc(-c4ccsc4)nc3s2)CC1 | 839 s
CCn1cc(S(=O)(=O)N2CC(N(Cc3cccnc3)CC(C)C)C2)cn1 | 592 s
CCOC(=O)c1ccc(Nc2c(C(=O)N3CCCCC3CC)cnc3nc(C)ccc23)cc1 (stereo not given) | 701 s
CC(=O)c1ccc(NC(=O)Cn2c(-c3ccc(F)cc3)nc(C)cc2=O)cc1 | 953 s
CCCN1CCN(c2ncc(C(=O)Nc3ccccc3)c(N)n2)CC1 | 610 s
COc1ccccc1-c1noc(-c2nnn(Cc3nc(-c4cccc(C)c4)oc3C)c2C)n1 | 1160 s
COc1ccc(C(=O)Nc2ccc(-c3cn4ccc(C)nc4n3)cc2)cc1 | 632 s

Compound | RP-LC retention time
Cc1ccc(C)c(N2CCN(c3ccnc(SCC(=O)Nc4cc(Cl)ccc4C)n3)CC2)c1 | 952 s
CCn1c(=O)sc2cc(S(=O)(=O)N3CCC(C(=O)N(C)C4CCCCC4)CC3)ccc21 | 958 s
O=C(NCC1(c2cccs2)CCOCC1)c1nc2ccccc2s1 | 596 s
COc1cccc(-c2nnc(SCc3cc(=O)n4c(C)csc4n3)o2)c1 | 840 s
COCc1nc(C2CCN(S(=O)(=O)c3ccc4c(c3)CCC4)C2)no1 (stereo not given) | 928 s
COC(=O)c1ccccc1NC(=O)CN1CCC(c2nc(-c3cccc(F)c3)no2)CC1 | 738 s
Cc1ccc2nc(-c3ccc(NC(=O)Cn4cnc(C)cc4=O)cc3)sc2c1 | 762 s
Cn1nc(C2CCN(S(=O)(=O)c3cccc(Cl)c3)CC2)n(C2CCCC2)c1=O | 925 s
O=C(NCc1ccco1)c1ccc2ccnc(N3CCN(c4ccc(Cl)cc4)CC3)c2c1 | 858 s
COc1ccc(-c2cc(C(=O)N(C)C)c(C)n2C)cc1 | 808 s
Cc1nnc(-c2cc(C)n(CC(=O)Nc3ccc(Br)cc3C)c2C)o1 | 847 s
Cc1cc(C)c2c(N3CCCCC3)nc(C(=O)N3CCOCC3)nc2n1 | 608 s
CN1C(=O)c2cc(C(=O)NCCCN3CCc4ccccc4C3)nn2CC1(C)C(=O)NC1CCCC1 (stereo not given) | 623 s
COc1ccc2[nH]c(=O)c(CCC(=O)NCCN(C)C3CCCCC3)cc2c1 | 598 s
O=C(CCCS(=O)(=O)Cc1ccccc1)Nc1ccc2c(c1)OCCO2 | 700 s
CCCN(CCC)C(=O)C1COC2(CCN(C(=O)c3ccco3)CC2)N1C(=O)c1ccccc1 (stereo not given) | 778 s
Cc1ccc(CCNC(=O)c2cc3n(n2)CC(C)(C(=O)NCc2ccccc2)N(C)C3=O)cc1 (stereo not given) | 815 s
CN(C)C(=O)C1CCN(S(=O)(=O)Cc2ccc(F)cc2)CC1 | 691 s
CCOc1ccc(-c2noc(Cc3nnc(-c4ccc(C)c(C)c4)o3)n2)cc1 | 1200 s
Cc1nnc2c(=O)n(CC(=O)N3CCCCC3)c3cccnc3n12 | 616 s

Next, values leading:

RP-LC retention time | Compound
598 s | Cn1cnc(S(=O)(=O)N2CCN(Cc3cccc(F)c3)C3(CCOCC3)C2)c1
1110 s | Cc1ccccc1Cc1nc(-c2cccc(-c3ccnn3C)c2)no1
617 s | Cc1ccc(-c2[nH]ncc2CN2C[C@@H]3CCN(S(C)(=O)=O)C[C@]3(CF)C2)cc1C
856 s | CCOC(=O)CCC(=O)NCC1(c2ccc(OC)cc2)CCCC1
919 s | CCOc1ccc(-c2noc(-c3nn(-c4ccccc4)ccc3=O)n2)cc1
687 s | CN(CC1CCOCC1)C(=O)Cc1ccc(F)cc1
644 s | O=C(NCc1ccccn1)C1CCN(C(=O)c2ncn3c2COC(c2ccc(Cl)cc2)C3)CC1 (stereo not given)
631 s | O=C(c1cccc(Br)c1)N1CCN(C(=O)N2CCOCC2)CC1
1000 s | O=C(NCc1cccs1)C1CCN(S(=O)(=O)c2cc(-c3noc(C4CCC4)n3)cs2)CC1
970 s | Cc1csc(-c2cc(S(=O)(=O)NC3CCCC3)c(C)n2C)n1
1130 s | CC(C)n1nnc2ccc(-c3noc(-c4ccccc4)n3)cc21
678 s | COc1cccc(CNC2=NCCNC23CCN(S(=O)(=O)c2ccccc2)CC3)c1
567 s | CCNc1cc(C)nc(N2CCN(C(=O)CC)CC2)n1
791 s | CC(=O)c1ccc(NC(=O)CN2C(=O)CCn3nc(-c4cn(C)c5ccccc45)cc32)cc1
727 s | COc1ccc(CC(=O)N2CCCC2c2c(C)noc2C)cc1 (stereo not given)
763 s | CC(C)CCNC(=O)C1(C)Cn2nc(C(=O)NCc3ccccc3F)cc2C(=O)N1C (stereo not given)
844 s | Cc1cc(C)cc(NC(=O)COc2cccc3c(=O)n(C)ccc23)c1
1150 s | Cc1ccc(NC(=O)N2CCN(c3nc4ccccc4nc3C(F)(F)F)CC2)cc1F
778 s | CC(=O)N1CCc2ccc(C(=O)NC3CCCCCC3)cc21
677 s | CN1C(=O)c2cccn2CC1C(=O)Nc1ccc(F)cc1 (stereo not given)
596 s | Cc1cccc(NC(=O)N2CCN(c3cc(N4CCCCC4)ncn3)CC2)c1C
667 s | Cc1nn(-c2ccccc2)cc1C(=O)N1CCC(CC(=O)NC2CC2)CC1
1110 s | CCOC(=O)c1[nH]c(C)c(C(=O)C(C)N(CCC(C)C)C(=O)c2ccc(C)cc2)c1C (stereo not given)
766 s | COc1cncc(C(=O)Nc2cc(F)ccc2Cl)c1
690 s | Cc1ccc(-c2noc3ncnc(N4CCN(c5ccccn5)CC4)c23)cc1
1080 s | Fc1ccccc1-c1noc(-c2ncn3c2COC(c2ccccc2Cl)C3)n1 (stereo not given)
818 s | CCn1ccc2sc(C)c(C(=O)NCc3ccccc3F)c2c1=O
1050 s | CCOc1ccc(-c2ccc(=O)n(Cc3nc(-c4ccc5c(c4)OCO5)no3)n2)cc1
796 s | COc1ccc(NC(=O)Cn2nc(N3CCCC3)c3ccccc3c2=O)cc1OC
669 s | CC(C)c1ccc(NC(=O)C2(Cc3cccnc3)CCCCC(=O)N2)cc1 (stereo not given)
